Test results from ChEMBL document CHEMBL3885881, “DrugMatrix”.

Species on record: Rattus norvegicus
Assay: DrugMatrix - Regimen: Daily Repeat
Type: toxicity, organism-based, Sprague-Dawley
Design: regimen Daily Repeat, gender Male, age 6-8 weeks
Conditions: in vivo, po, route oral GAVAGE, […]; for ABSOLUTE BASOPHIL / ABSOLUTE EOSINOPHIL / ABSOLUTE LYMPHOCYTE / ABSOLUTE MONOCYTE / ABSOLUTE SEGMENTED NEUTROPHIL / BASOPHIL / EOSINOPHIL / ERYTHROCYTE COUNT / HEMATOCRIT / HEMOGLOBIN / LEUKOCYTE COUNT / LYMPHOCYTE / MEAN CORPUSCULAR HEMOGLOBIN / MEAN CORPUSCULAR HEMOGLOBIN CONCENTRATION / MEAN CORPUSCULAR VOLUME / MONOCYTE / NEUTROPHIL / NUCLEATED RED BLOOD CELLS / PLATELET COUNT: tissue Blood; for ALANINE AMINOTRANSFERASE / ALBUMIN / ALKALINE PHOSPHATASE / ASPARTATE AMINOTRANSFERASE / BLOOD UREA NITROGEN / CARBON DIOXIDE / CHLORIDE / CHOLESTEROL / CREATINE PHOSPHOKINASE / CREATININE / GLUCOSE / LACTATE DEHYDROGENASE / LIPASE / PHOSPHORUS / POTASSIUM / SODIUM / TOTAL BILIRUBIN / TOTAL PROTEIN / URIC ACID: tissue Plasma
[1] = 0 mg/kg, 72 h, dose level Control, time 3 day
[2] = 0 mg/kg, 120 h, dose level Control, time 5 day
[3] = 3 mg/kg, 72 h, dose level Low, time 3 day

Cc1cccc(Nc2ccncc2S(=O)(=O)NC(=O)NC(C)C)c1 [TORSEMIDE]
ABSOLUTE BASOPHIL [1]: 0 CELLS/uL
ABSOLUTE EOSINOPHIL [1]: 41.83 CELLS/uL
ABSOLUTE LYMPHOCYTE [1]: 8545.5 CELLS/uL
ABSOLUTE MONOCYTE [1]: 240 CELLS/uL
ABSOLUTE SEGMENTED NEUTROPHIL [1]: 906 CELLS/uL
BASOPHIL [1]: 0%
EOSINOPHIL [1]: 0.33%
ERYTHROCYTE COUNT [1]: 5.6 x10E6/uL
HEMATOCRIT [1]: 35.4%
HEMOGLOBIN [1]: 13.42 G/DL
LEUKOCYTE COUNT [1]: 9.73 x10E3/uL
LYMPHOCYTE [1]: 87.83%
MEAN CORPUSCULAR HEMOGLOBIN [1]: 23.98 pg
MEAN CORPUSCULAR HEMOGLOBIN CONCENTRATION [1]: 37.92 G/DL
MEAN CORPUSCULAR VOLUME [1]: 63.3 fL
MONOCYTE [1]: 2.5%
NEUTROPHIL [1]: 9.33%
NUCLEATED RED BLOOD CELLS [1]: 0 /100WBC
PLATELET COUNT [1]: 1032 x10E3/uL
ALANINE AMINOTRANSFERASE [1]: 72.83 u/L
ALBUMIN [1]: 4 G/DL
ALKALINE PHOSPHATASE [1]: 322.83 u/L
ASPARTATE AMINOTRANSFERASE [1]: 102.67 u/L
BLOOD UREA NITROGEN [1]: 12 mg/dL
CARBON DIOXIDE [1]: 34.33 mmol/L
CHLORIDE [1]: 97.67 MEQ/L
CHOLESTEROL [1]: 82.5 mg/dL
CREATINE PHOSPHOKINASE [1]: 410.33 u/L
CREATININE [1]: 0.18 mg/dL
GLUCOSE [1]: 164.5 mg/dL
LACTATE DEHYDROGENASE [1]: 119.5 u/L
LIPASE [1]: 11.83 u/L
PHOSPHORUS [1]: 9.52 mg/dL
POTASSIUM [1]: 5.56 MEQ/L
SODIUM [1]: 142.48 MEQ/L
TOTAL BILIRUBIN [1]: 0.18 mg/dL
TOTAL PROTEIN [1]: 5.77 G/DL
URIC ACID [1]: 0.48 mg/dL
ABSOLUTE BASOPHIL [2]: 0 CELLS/uL
ABSOLUTE EOSINOPHIL [2]: 0 CELLS/uL
ABSOLUTE LYMPHOCYTE [2]: 9065 CELLS/uL
ABSOLUTE MONOCYTE [2]: 341.33 CELLS/uL
ABSOLUTE SEGMENTED NEUTROPHIL [2]: 527 CELLS/uL
BASOPHIL [2]: 0%
EOSINOPHIL [2]: 0%
ERYTHROCYTE COUNT [2]: 5.25 x10E6/uL
HEMATOCRIT [2]: 34.08%
HEMOGLOBIN [2]: 13.5 G/DL
LEUKOCYTE COUNT [2]: 9.93 x10E3/uL
LYMPHOCYTE [2]: 91.17%
MEAN CORPUSCULAR HEMOGLOBIN [2]: 25.7 pg
MEAN CORPUSCULAR HEMOGLOBIN CONCENTRATION [2]: 39.62 G/DL
MEAN CORPUSCULAR VOLUME [2]: 64.93 fL
MONOCYTE [2]: 3.33%
NEUTROPHIL [2]: 5.5%
NUCLEATED RED BLOOD CELLS [2]: 0 /100WBC
PLATELET COUNT [2]: 1077.5 x10E3/uL
ALANINE AMINOTRANSFERASE [2]: 57.83 u/L
ALBUMIN [2]: 4.07 G/DL
ALKALINE PHOSPHATASE [2]: 319.17 u/L
ASPARTATE AMINOTRANSFERASE [2]: 83.33 u/L
BLOOD UREA NITROGEN [2]: 13.67 mg/dL
CARBON DIOXIDE [2]: 30.83 mmol/L
CHLORIDE [2]: 98.33 MEQ/L
CHOLESTEROL [2]: 64.83 mg/dL
CREATINE PHOSPHOKINASE [2]: 263.67 u/L
CREATININE [2]: 0.2 mg/dL
GLUCOSE [2]: 182.83 mg/dL
LACTATE DEHYDROGENASE [2]: 124 u/L
LIPASE [2]: 10.5 u/L
PHOSPHORUS [2]: 10 mg/dL
POTASSIUM [2]: 5.78 MEQ/L
SODIUM [2]: 142.48 MEQ/L
TOTAL BILIRUBIN [2]: 0.2 mg/dL
TOTAL PROTEIN [2]: 6 G/DL
URIC ACID [2]: 0.7 mg/dL
ABSOLUTE BASOPHIL [3]: 0 CELLS/uL
ABSOLUTE EOSINOPHIL [3]: 53.33 CELLS/uL
ABSOLUTE LYMPHOCYTE [3]: 14854 CELLS/uL
ABSOLUTE MONOCYTE [3]: 155 CELLS/uL
ABSOLUTE SEGMENTED NEUTROPHIL [3]: 1071 CELLS/uL
BASOPHIL [3]: 0%
EOSINOPHIL [3]: 0.33%
ERYTHROCYTE COUNT [3]: 5.34 x10E6/uL
HEMATOCRIT [3]: 33.73%
HEMOGLOBIN [3]: 13.07 G/DL
LEUKOCYTE COUNT [3]: 16.13 x10E3/uL
LYMPHOCYTE [3]: 92%
MEAN CORPUSCULAR HEMOGLOBIN [3]: 24.43 pg
MEAN CORPUSCULAR HEMOGLOBIN CONCENTRATION [3]: 38.7 G/DL
MEAN CORPUSCULAR VOLUME [3]: 63.07 fL
MONOCYTE [3]: 1%
NEUTROPHIL [3]: 6.67%
NUCLEATED RED BLOOD CELLS [3]: 0 /100WBC
PLATELET COUNT [3]: 969.67 x10E3/uL
ALANINE AMINOTRANSFERASE [3]: 67.33 u/L
ALBUMIN [3]: 3.93 G/DL
ALKALINE PHOSPHATASE [3]: 375.67 u/L
ASPARTATE AMINOTRANSFERASE [3]: 84.33 u/L
BLOOD UREA NITROGEN [3]: 11.33 mg/dL
CARBON DIOXIDE [3]: 26.67 mmol/L
CHLORIDE [3]: 101.33 MEQ/L
CHOLESTEROL [3]: 69.33 mg/dL
CREATINE PHOSPHOKINASE [3]: 255 u/L
CREATININE [3]: 0.29 mg/dL
GLUCOSE [3]: 162 mg/dL
LACTATE DEHYDROGENASE [3]: 201 u/L
LIPASE [3]: 11.67 u/L
PHOSPHORUS [3]: 10.23 mg/dL
POTASSIUM [3]: 5.87 MEQ/L
SODIUM [3]: 143.83 MEQ/L
TOTAL BILIRUBIN [3]: 0.2 mg/dL
TOTAL PROTEIN [3]: 5.6 G/DL
URIC ACID [3]: 0.93 mg/dL
